Laboratory results published in patent US6251944A, “Para-substituted phenylene derivatives” (G. D. Searle & Company, priority 1999, dated 2001).
Structures can show the parent of a compound that is named as a salt.

Key:
[1] = biological target: T1, Human fibrinogen receptor (αIIbβ3) (Homo sapiens, UniProt P05106+P08514); assay: Purified IIb/IIIa receptor assay (solid phase receptor assay); conditions: inhibition of 50% of maximum binding of biotinylated vitronectin; highest concentration tested 1.0×10^-4 M
T1 construct: purified from outdated platelets; from tissue; host or cells: outdated platelets (human)
Procedure: The activity of the compounds of the present invention was tested in the following assays.
Human fibrinogen receptor (αIIbβ3) was purified from outdated platelets. […] Biotinylated human vitronectin was prepared by coupling NHS-biotin from Pierce Chemical Company (Rockford, Ill.) to purified vitronectin as previously described. […] Anti-biotin antibody was obtained from Calbiochem (La Jolla, Calif.). Linbro microtiter plates were obtained from Flow Labs (McLean, Va.). ADP reagent was obtained from Sigma (St. Louis, Mo.).
Solid Phase Receptor Assays
The purified human fibrinogen receptor (αIIbβ3) was diluted from stock solutions to 1.0 μg/mL in Tris-buffered saline containing 1.0 mM Ca^++, Mg^++, and Mn^++, pH 7.4 (TBS^+++). The diluted receptor was immediately transferred to Linbro microtiter plates at 100 μL/well (100 ng receptor/well). The plates were sealed and incubated overnight at 4° C. to allow the receptor to bind to the wells. All remaining steps were at room temperature. The assay plates were emptied and 200 μL of 1% RIA grade BSA in TBS^+++ (TBS^+++ /BSA) were added to block exposed plastic surfaces. Following a 2 hour incubation, the assay plates were washed with TBS^+++ using a 96 well plate washer. Logarithmic serial dilution of the test compound and controls were made starting at a stock concentration of 2 mM and using 2 nM biotinylated vitronectin in TBS^+++ /BSA as the diluent. This premixing of labeled ligand with test (or control) ligand, and subsequent transfer of 50 μL aliquots to the assay plate was carried out with a CETUS Propette robot; the final concentration of the labeled ligand was 1 nM and the highest concentration of test compound was 1.0×10^-4 M. The competition occurred for two hours after which all wells were washed with a plate washer as before. Affinity purified horseradish peroxidase labeled goat anti-biotin antibody was diluted 1:3000 in TBS^+++ /BSA and 125 μL were added to each well. After 30 minutes, the plates were washed and incubated with […]/H2 O2 substrate in 100 mM/L citrate buffer, pH 5.0. The plate was read with a microtiter plate reader at a wavelength of 450 nm and when the maximum-binding control wells reached an absorbance of about 1.0, the final A450 were recorded for analysis. The data were analyzed using a macro written for use with the EXCEL™ spreadsheet program. The mean, standard deviation, and % CV were determined for duplicate concentrations. The mean A450 values were normalized to the mean of four maximum-binding controls (no competitor added) (B-MAX). The normalized values were subjected to a four parameter curve fit algorithm, [Robard et al., Int.

[2] = biological target: T2, Human vitronectin receptor(αvβ3) (Homo sapiens, UniProt P05106+P06756); assay: Vitronectin adhesion assay (solid phase receptor assay, αvβ3); conditions: inhibition of 50% of maximum binding of biotinylated vitronectin; highest concentration tested 1.0×10^-4 M; read-out: AvB3 IC50
T2 construct: purified from human placenta; from tissue; host or cells: human placenta
Procedure: The activity of the compounds of the present invention was tested in the following assays. […] Assay buffer, OPD substrate tablets, and RIA grade BSA were obtained from Sigma (St. Louis, Mo.). Anti-biotin antibody was obtained from Calbiochem (La Jolla, Calif.). Linbro microtiter plates were obtained from Flow Labs (McLean, Va.). ADP reagent was obtained from Sigma (St. Louis, Mo.). […] The purified human vitronectin receptor (αvβ3) was diluted from stock solutions to 1.0 μg/mL in Tris-buffered saline containing 1.0 mM Ca^++, Mg^++, and Mn^++, pH 7.4 (TBS^+++). The diluted receptor was immediately transferred to Linbro microtiter plates at 100 μL/well (100 ng receptor/well). The plates were sealed and incubated overnight at 4° C. to allow the receptor to bind to the wells. All remaining steps were at room temperature. The assay plates were emptied and 200 μL of 1% RIA grade BSA in TBS^+++ (TBS^+++ /BSA) were added to block exposed plastic surfaces. Following a 2 hour incubation, the assay plates were washed with TBS^+++ using a 96 well plate washer. […] The competition occurred for two hours after which all wells were washed with a plate washer as before. […] After 30 minutes, the plates were washed and incubated with OPD/H2 O2 substrate in 100 mM/L Citrate buffer, pH 5.0. […] The data were analyzed using a macro written for use with the EXCEL™ spreadsheet program. The mean, standard deviation, and % CV were determined for duplicate concentrations. The mean A450 values were normalized to the mean of four maximum-binding controls (no competitor added)(B-MAX). The normalized values were subjected to a four parameter curve fit algorithm [Rodbard et al., Int. […] Ser.

T2 sequence (P06756 31-889 limits assumed): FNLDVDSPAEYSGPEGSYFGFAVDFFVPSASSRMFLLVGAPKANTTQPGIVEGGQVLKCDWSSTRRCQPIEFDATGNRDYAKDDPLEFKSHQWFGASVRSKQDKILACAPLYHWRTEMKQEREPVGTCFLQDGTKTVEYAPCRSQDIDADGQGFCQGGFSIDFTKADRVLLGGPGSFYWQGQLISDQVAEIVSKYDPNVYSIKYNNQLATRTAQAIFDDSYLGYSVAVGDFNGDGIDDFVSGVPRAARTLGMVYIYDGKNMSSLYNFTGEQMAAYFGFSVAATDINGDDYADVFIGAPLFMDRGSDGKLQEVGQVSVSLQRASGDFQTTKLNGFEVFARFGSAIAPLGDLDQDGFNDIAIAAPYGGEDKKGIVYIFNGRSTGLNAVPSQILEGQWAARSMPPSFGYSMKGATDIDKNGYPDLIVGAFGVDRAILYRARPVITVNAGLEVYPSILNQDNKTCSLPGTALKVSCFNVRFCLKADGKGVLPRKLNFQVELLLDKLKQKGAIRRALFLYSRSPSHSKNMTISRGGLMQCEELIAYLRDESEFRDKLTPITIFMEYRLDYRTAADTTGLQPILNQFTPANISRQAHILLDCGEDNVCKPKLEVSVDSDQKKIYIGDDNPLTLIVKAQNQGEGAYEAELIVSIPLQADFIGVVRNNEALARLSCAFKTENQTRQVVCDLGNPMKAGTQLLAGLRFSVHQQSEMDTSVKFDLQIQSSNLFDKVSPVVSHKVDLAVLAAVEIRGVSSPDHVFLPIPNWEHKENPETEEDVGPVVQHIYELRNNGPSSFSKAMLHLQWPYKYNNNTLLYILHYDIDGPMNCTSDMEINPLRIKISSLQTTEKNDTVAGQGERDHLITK
T2 sequence (P06756 891-1048 limits assumed): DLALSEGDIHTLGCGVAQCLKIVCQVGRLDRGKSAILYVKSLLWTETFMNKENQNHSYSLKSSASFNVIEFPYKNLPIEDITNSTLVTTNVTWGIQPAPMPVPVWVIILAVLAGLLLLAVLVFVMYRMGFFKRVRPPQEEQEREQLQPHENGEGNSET
T2 sequence (P05106 27-788): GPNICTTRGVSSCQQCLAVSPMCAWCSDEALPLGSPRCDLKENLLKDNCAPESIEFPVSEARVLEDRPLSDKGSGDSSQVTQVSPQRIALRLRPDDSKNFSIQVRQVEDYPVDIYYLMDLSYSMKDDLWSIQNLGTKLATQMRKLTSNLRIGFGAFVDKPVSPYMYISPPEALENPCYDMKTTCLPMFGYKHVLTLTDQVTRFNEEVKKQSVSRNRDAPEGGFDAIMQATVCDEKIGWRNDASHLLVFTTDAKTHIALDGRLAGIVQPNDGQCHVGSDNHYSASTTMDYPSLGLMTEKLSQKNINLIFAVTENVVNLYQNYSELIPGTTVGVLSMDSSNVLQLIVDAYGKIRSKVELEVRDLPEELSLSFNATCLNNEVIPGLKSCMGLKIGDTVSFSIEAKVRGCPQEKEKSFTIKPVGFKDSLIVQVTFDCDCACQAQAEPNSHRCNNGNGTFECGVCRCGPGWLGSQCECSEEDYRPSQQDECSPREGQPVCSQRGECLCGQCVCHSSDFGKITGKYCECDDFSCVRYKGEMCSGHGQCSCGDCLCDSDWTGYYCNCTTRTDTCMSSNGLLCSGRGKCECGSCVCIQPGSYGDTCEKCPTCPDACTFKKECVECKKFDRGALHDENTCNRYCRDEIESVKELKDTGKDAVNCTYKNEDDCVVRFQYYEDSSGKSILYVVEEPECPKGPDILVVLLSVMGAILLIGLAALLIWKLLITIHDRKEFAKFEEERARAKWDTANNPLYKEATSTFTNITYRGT
T1 sequence (P08514 32-887 limits assumed): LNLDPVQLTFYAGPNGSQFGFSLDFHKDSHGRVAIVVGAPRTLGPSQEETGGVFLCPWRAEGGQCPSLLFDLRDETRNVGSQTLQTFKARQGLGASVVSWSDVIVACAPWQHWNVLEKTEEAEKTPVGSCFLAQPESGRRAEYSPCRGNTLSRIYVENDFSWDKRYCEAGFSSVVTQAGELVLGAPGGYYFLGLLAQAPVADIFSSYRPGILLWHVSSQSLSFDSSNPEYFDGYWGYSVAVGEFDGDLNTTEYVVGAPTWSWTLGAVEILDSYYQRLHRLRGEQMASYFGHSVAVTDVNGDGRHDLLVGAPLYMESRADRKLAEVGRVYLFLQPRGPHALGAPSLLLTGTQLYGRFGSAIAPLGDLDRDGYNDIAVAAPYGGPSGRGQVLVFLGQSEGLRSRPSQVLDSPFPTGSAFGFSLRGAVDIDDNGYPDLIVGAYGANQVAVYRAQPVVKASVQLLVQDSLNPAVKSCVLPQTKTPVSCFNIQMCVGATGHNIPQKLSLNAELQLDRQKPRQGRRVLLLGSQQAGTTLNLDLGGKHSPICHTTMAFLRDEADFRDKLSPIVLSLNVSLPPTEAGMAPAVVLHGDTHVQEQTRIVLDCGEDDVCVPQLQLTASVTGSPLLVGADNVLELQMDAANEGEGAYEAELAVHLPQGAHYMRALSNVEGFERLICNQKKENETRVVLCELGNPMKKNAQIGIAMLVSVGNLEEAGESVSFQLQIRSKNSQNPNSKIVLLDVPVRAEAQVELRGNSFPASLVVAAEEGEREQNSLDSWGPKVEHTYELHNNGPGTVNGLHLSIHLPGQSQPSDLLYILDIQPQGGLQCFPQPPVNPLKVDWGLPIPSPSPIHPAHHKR
T1 sequence (P08514 891-1039 limits assumed): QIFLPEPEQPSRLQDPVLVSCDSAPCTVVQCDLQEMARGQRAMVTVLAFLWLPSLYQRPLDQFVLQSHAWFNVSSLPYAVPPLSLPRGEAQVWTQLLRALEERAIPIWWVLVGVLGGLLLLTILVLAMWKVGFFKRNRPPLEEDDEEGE
T1 sequence (P05106 27-788): as the sequence (P05106 27-788) above

| SMILES | IC50 [1] [nM] | IC50 [2] [nM] |
| --- | --- | --- |
| CC(CC(=O)OC(C)(C)C)c1ccc(NC(=O)c2cccc(NC(=N)N)c2)cc1 (stereo not drawn) [Example 30, 1,1-dimethylethyl 4-[[[3-[(aminoiminomethyl)amino]phenyl]carbonyl]amino]-β-methylbenzenepropanoate, trifluoroacetate Salt] | 3260 | 6370 |
| CCOC(=O)CSc1ccc(NC(=O)c2cccc(NC(=N)N)c2)cc1 [Example 90, ethyl[[4-[[(3-[(aminoiminomethyl)amino]phenyl]carbonyl]amino]phenyl]thio]acetic Acid, trifluoroacetate] | 34500 | 23700 |
| N=C(N)Nc1cccc(C(=O)Nc2ccc(CCC(=O)O)c(CCC(=O)O)c2)c1 [Example 100, 4-[[[3-[(aminoiminomethyl)amino]phenyl]carbonyl]amino]benzene-1,2-dipropanoic Acid, trifluoroacetate Salt] | 44 | 6 |
| N=C(N)Nc1cccc(C(=O)Nc2ccc(OCC(=O)O)cc2)c1 [Example 81, [4-[[[3-[(aminoiminomethyl)amino]phenyl]-carbonyl]amino]phenoxy]acetic Acid, trifluoroacetate Salt] | 129 | 19.1 |
| CC(C)COC(=O)NC(Cc1ccc(NC(=O)c2cccc(NC(=N)N)c2)cc1)C(=O)O (stereo not shown) [Example 53, 4-[[[3-[(aminoiminomethyl)amino]phenyl]-carbonyl]amino]-N-[(2-methylpropoxy)carbonyl]-phenylalanine, trifluoroacetate Salt] | 15.3 | 0.56 |
| CCOC(=O)C(Oc1ccc(NC(=O)c2cccc(NC(=N)N)c2)cc1)c1ccccc1 (stereo not drawn) [Example 86C, ethyl α-[4-[[[3-[(aminoiminomethyl)amino]phenyl]carbonyl]amino]phenoxy]benzeneacetate, trifluoroacetate Salt] | > 100000 | 56800 |
| N=C(N)Nc1cccc(C(=O)Nc2ccc(C(CC(=O)O)C(=O)NCC(=O)O)cc2)c1 (stereo not drawn) [Example 73, 4-[[[3-[(aminoiminomethyl)amino]phenyl]-carbonyl]amino]-beta-[[(carboxymethyl)amino]carbonyl]-benzenepropanoic Acid, trifluoroacetate Salt] | 40 | 141 |
| CCC(Cc1ccc(NC(=O)c2cccc(NC(=N)N)c2)cc1)C(=O)O (stereo not drawn) [Example 129, 4-[[[3-[(aminoiminomethyl)amino]phenyl]carbonyl]amino]-α-ethylbenzenepropanoic Acid, trifluoroacetate Salt] | 5260 | 265 |
